Source: patent US11512073B2, “Benzimidazole derivatives, pharmaceutical composition comprising the same, and use thereof” (Chongqing University of Arts and Sciences, priority 2020, dated 2022)

Tests used:
[1] = system: MDA-MB-231 and MDA-MB-468 cells; experiment: Immunofluorescence of γH2AX and p62; format: cell-based, Human
Experimental: (§1) Cells were plated on glass coverslips in 24-well plates prior to treatment. After being exposed to different doses of compound 7a for 48 h, cells were washed with PBS for three times, fixed with 4% paraformaldehyde-PBS for 30 min, and then followed by permeabilization with 0.1% Triton X-100 for 10 min. Next, the samples were blocked with QuickBlock Blocking Buffer for Immunol Staining (Beyotime) for 30 min at 37° C., and incubated with anti-Ki67 (1:250), anti-LC3B antibody (1:250), anti-SQSTM1 antibody (1:250) or anti-γH2AX (1:250) overnight at 4° C. After washing with PBS three times, the stained cells were incubated with Alexa Fluor-conjugated secondary antibodies (1:2000) for 1 hour at room temperature. Moreover, 1 mg/mL DAPI dissolved in PBS were employed to label nuclei (30 min). Images were captured with a High Content analysis system (Perkinelmer, MA, USA).

MDA-MB-231 xenograft = experiment: Animal xenograft model; format: in vivo, NOD/SCID mice
Experimental: For the in vivo assay, six-week-old female NOD/SCID mice weighing 16-20 g were used, which were maintained in the SPF (Specific Pathogen Free) laboratory animal environment and under a normal daily light/dark cycle. During the experiment, 1×10^7 MDA-MB-231 cells were suspended in 100 μL serum-free DMEM and injected subcutaneously into the left groin region of the mice. Tumor volume was measured regularly. On day 22 post-tumor implanted, the NOD/SCID mice were randomly divided into three groups (n=6) on the basis of their tumor volume to insure a similar starting tumor volume of all the groups. The appropriate dose of compound 7a (5 mg/kg, 15 mg/kg) dissolved in 100 μL solvent (10% ethanol, 40% PEG400 and 50% corn oil) was administered every 3 days by intraperitoneal injection when the xenograft tumor volume attained around 100 mm^3, while the control group received equal volume solvent every 3 days in a similar method. The tumor size was measured once every 3 days with a caliper, and tumor size was calculated using the standard formula (L×W^2)/2, where L and W represents the length and width, respectively. The mice were sacrificed on Day 46 (Day 25 after treatment), and the xenograft tumors were obtained and weighed. Then the tumor tissues were collected and divided into two portions, one was fixed in 4% PFA and embedded by paraffin for Hematoxylin & eosin (HE) and immunohistochemical staining, anther was performed immunoblotting.
For immunohistochemistry, the embedded samples were sectioned and incubated with anti-Ki-67 overnight at 4° C. Then, the sections were incubated with HRP labeled secondary antibody and were observed under the Olympus BX73 microscope. Five fields were randomly selected to evaluate the positivity.

[2] = system: MDA-MB-231 and MDA-MB-468 cells; experiment: Colony forming assay; format: cell-based, Human; details: 0, 5, 10, 20 μmol/L
Experimental: MAD-MB-231 and MDA-MB-468 cells were seeded in a six-well plate at 1000 cells/well and treated with various concentrations of compound 7a (0, 5, 10, 20 μmol/L) for 48 h. After discarding the supernatant, the cells were cultured with fresh medium for 15 days until formed the visible colonies. Finally, colonies were fixed with 4% paraformaldehyde (PFA) and stained with crystal violet for 30 min to enable enumeration of colonies.

[3] = system: MDA-MB-231 and MDA-MB-468 cells; experiment: Cell cycle analysis by flow cytometry; format: cell-based, Human; details: 48 h
Experimental: (§2) Cells in a logarithmic growth phase were harvested and seeded into six-well plates with 30% cell density and cultured overnight in an incubator. Once adhered to the bottom of the plate, cells were treated with different doses of compound 7a for 48 h, and then employed in flow cytometry analysis. For cell cycle assay, the collected cells were washed with phosphate-buffered saline (PBS) and fixed with 70% cold ethanol in 4° C. for 24 h. After washing three times of PBS, the fixed cells were incubated in 200 μL PBS solution containing 1 μL propidium iodide (BD, CA, USA) and 1 μL RNase (Sigma Aldrich, USA) at 37° C. for 0.5 h. Finally, cells were analyzed using BD Accuri™ C6 flow cytometry (BD Biosciences, USA). For the cell apoptosis assay, after the cells were harvested and washed twice with PBS, the percentage of apoptotic cells were measured using an Annexin V-FITC/PI Apoptosis Assay Kit (BD Biosciences, USA). The BD Accuri™ C6 flow cytometry was used to analyze the apoptosis process. The FlowJo software was used to analyze the cell cycle arrest and apoptotic rate.

TNBC cells [4] = experiment: Ki67-staining immunofluorescence; format: cell-based, Human; details: 48 h, versus controls
Experimental: as §1

MDA-MB-468 cells = experiment: Annexin V-FITC/PI apoptosis assay by flow cytometry; format: cell-based, Human; details: 48 h, dose-dependent; from 5.02% in control; p<0.01
Experimental: as §2

MDA-MB-231 cells = experiment: as above; format: cell-based, Human; details: 48 h, dose-dependent; from 3.64% in control; p<0.01
Experimental: as §2

TNBC cells [5] = experiment: MTT cell viability assay, statements for both TNBC lines; format: cell-based, Human; details: MDA-MB-231 and MDA-MB-468; 24, 48 and 72 h
Experimental: Compounds were dissolved in a hydrous dimethylsulfoxide (DMSO, Life technologies) to obtain a 50 mM stock solution, which was then added to the culture medium at a concentration range of 6.25-100 μM. […] Z-VAD-FMK was purchased from Selleckchem (Houston, Tex.); The reagents including 3-(4,5-dimethylthiazol-2-yl)-2,5-diphenyltetrazolium bromide (MTT), dimethyl sulfoxide (DMSO), penicillin, streptomycin, propidium iodide (PI) were purchased from Sigma-Aldrich (MO, USA); All the primary antibodies used in this study were from Cell Signaling Technology (MA, USA) and the secondary antibodies were from LI-COR Biosciences (NE, USA).
Human triple negative breast cancer cell lines MDA-MB-231 and MDA-MB-468 were purchased from the American Type Culture Collection (ATCC, VA, USA). These cells were cultured in high-glucose DMEM (Gibco, USA) supplemented with 10% fetal bovine serum (FBS, Gibco) and 1% penicillin/streptomycin (Gibco) at 37° C. in a humidified incubator containing 5% CO2.
The antiproliferative activity of compounds was measured with the MTT assay. […] The absorbance value was determined at 570 nm using a microplate reader (Bio-Tek, VT, USA). Data were analyzed by GraphPad Prism 6. […]

**Q.** With `O=C(NC1CCCCC1)c1[nH]cnc1-c1nc2ccccc2[nH]1` [Compound 7a] as the compound, how does the γH2AX foci ([1]; 48 h) read?
**A.** accumulation of γH2AX foci in nuclei

**Q.** What about the “p62 signal in nuclei” value ([1]; dose-dependent) of the same compound?
**A.** accumulated in the nuclei

**Q.** What about the “tumor growth (tumor volume and weight)” value (MDA-MB-231 xenograft; 5 and 15 mg/Kg, intraperitoneal, after 24 days, dose dependent) of the same compound?
**A.** considerably suppressed human TNBC tumor growth

**Q.** And the “size of harvested tumors” value (MDA-MB-231 xenograft; 5 and 15 mg/kg, intraperitoneal, every 3 days)?
**A.** dramatically smaller than tumors from vehicle-treated control mice

**Q.** And the “LC3B-II, p62, γH2AX and PARP in tumor tissue” value (MDA-MB-231 xenograft; immunoblotting of tumors, 5 and 15 mg/kg)?
**A.** concentration-dependent upregulation of LC3B-II, p62, γH2AX and PARP

**Q.** What about the “cell count (H&E) and Ki67 in tumor tissue” value (MDA-MB-231 xenograft; immunohistochemistry of tumors) of the same compound?
**A.** significant decrease in cell count and Ki67

**Q.** And the colony formation [2]?
**A.** smaller and decreased colony numbers

**Q.** And the cell cycle distribution [3]?
**A.** induced cell cycle arrest at S-phase

**Q.** What about the “rate of Ki67-positive cells” value (TNBC cells [4]) of the same compound?
**A.** notably reduced rate of Ki67-positive cells

**Q.** And the “proportion of late-phase apoptosis” value (MDA-MB-468 cells)?
**A.** 36.4%

**Q.** And the “proportion of late-phase apoptosis” value (MDA-MB-231 cells)?
**A.** 34.2%

**Q.** What about the TNBC cell viability (TNBC cells [5]) of the same compound?
**A.** efficiently inhibited TNBC cell viability in a time- and dose-dependent manner
